From PubChem BioAssay (NCI)
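Interpolation was linear, between the two tested concentrations surrounding the appropriate level; five concentrations were tested over 48 hours in 96-well plates. GI50 = concentration required for 50% inhibition of growth. TGI marks complete inhibition of growth.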

Assays:
Assay in all cases: growth of human tumour cells (NCI), 48 h
NCI-H226 lung = system: NCI-H226 lung
PC-3 prostate = system: PC-3 prostate
U251 CNS = system: U251 CNS
DU-145 prostate = system: DU-145 prostate
K-562 leukemia = system: K-562 leukemia
SR leukemia = system: SR leukemia
CCRF-CEM leukemia = system: CCRF-CEM leukemia
CAKI-1 renal = system: CAKI-1 renal
SF-295 CNS = system: SF-295 CNS
HCC-2998 colon = system: HCC-2998 colon
MDA-MB-435 = system: MDA-MB-435
M14 melanoma = system: M14 melanoma
SK-MEL-5 melanoma = system: SK-MEL-5 melanoma
SN12C renal = system: SN12C renal
OVCAR-5 ovarian = system: OVCAR-5 ovarian
SF-539 CNS = system: SF-539 CNS
UACC-62 melanoma = system: UACC-62 melanoma
A549 NSCLC = system: A549 NSCLC
COLO 205 colon = system: COLO 205 colon
HL-60(TB) leukemia = system: HL-60(TB) leukemia
KM12 colon = system: KM12 colon
SK-MEL-2 melanoma = system: SK-MEL-2 melanoma
OVCAR-8 ovarian = system: OVCAR-8 ovarian
SNB-75 CNS = system: SNB-75 CNS
SK-MEL-28 melanoma = system: SK-MEL-28 melanoma
NCI-H23 lung = system: NCI-H23 lung
HT29 colon = system: HT29 colon
HCT-116 colon = system: HCT-116 colon
BT-549 breast = system: BT-549 breast
OVCAR-3 ovarian = system: OVCAR-3 ovarian
SK-OV-3 ovarian = system: SK-OV-3 ovarian
T-47D breast = system: T-47D breast
TK-10 renal = system: TK-10 renal
UO-31 renal = system: UO-31 renal
OVCAR-4 ovarian = system: OVCAR-4 ovarian
UACC-257 melanoma = system: UACC-257 melanoma
SW-620 colon = system: SW-620 colon
HS 578T breast = system: HS 578T breast
HOP-92 NSCLC = system: HOP-92 NSCLC
SNB-19 CNS = system: SNB-19 CNS
MOLT-4 leukemia = system: MOLT-4 leukemia
LOX IMVI melanoma = system: LOX IMVI melanoma
HOP-62 NSCLC = system: HOP-62 NSCLC
HCT-15 colon = system: HCT-15 colon
NCI-H460 lung = system: NCI-H460 lung
MCF7 breast = system: MCF7 breast
ACHN renal = system: ACHN renal
RPMI-8226 leukemia = system: RPMI-8226 leukemia
NCI/ADR-RES ovarian = system: NCI/ADR-RES ovarian
A498 renal = system: A498 renal
IGROV1 ovarian = system: IGROV1 ovarian
786-0 renal = system: 786-0 renal
RXF 393 renal = system: RXF 393 renal
NCI-H522 lung = system: NCI-H522 lung
SF-268 CNS = system: SF-268 CNS
MDA-MB-231 breast = system: MDA-MB-231 breast
MALME-3M melanoma = system: MALME-3M melanoma
EKVX NSCLC = system: EKVX NSCLC

Question: `ClC1=C(Cl)C(Cl)=C(Cl)C1=Cc1ccccc1` was tested. Which GI50 (NCI-H226 lung) did it give?
Answer: 1910 nM

Question: What about the TGI (NCI-H226 lung) of the same compound?
Answer: 3860 nM

Question: What about the GI50 (PC-3 prostate) of the same compound?
Answer: 622 nM

Question: And the TGI (PC-3 prostate)?
Answer: 3700 nM

Question: What about the GI50 (U251 CNS) of the same compound?
Answer: 517 nM

Question: And the TGI (U251 CNS)?
Answer: 1590 nM

Question: And the GI50 (DU-145 prostate)?
Answer: 708 nM

Question: And the TGI (DU-145 prostate)?
Answer: 2830 nM

Question: And the GI50 (K-562 leukemia)?
Answer: 277 nM

Question: And the TGI (K-562 leukemia)?
Answer: 3500 nM

Question: What about the GI50 (SR leukemia) of the same compound?
Answer: 334 nM

Question: And the TGI (SR leukemia)?
Answer: 2570 nM

Question: And the GI50 (CCRF-CEM leukemia)?
Answer: 288 nM

Question: What about the TGI (CCRF-CEM leukemia) of the same compound?
Answer: 3570 nM

Question: And the GI50 (CAKI-1 renal)?
Answer: 342 nM

Question: What about the TGI (CAKI-1 renal) of the same compound?
Answer: 1130 nM

Question: And the GI50 (SF-295 CNS)?
Answer: 1330 nM

Question: What about the TGI (SF-295 CNS) of the same compound?
Answer: 3740 nM

Question: And the GI50 (HCC-2998 colon)?
Answer: 1730 nM

Question: And the TGI (HCC-2998 colon)?
Answer: 3140 nM

Question: And the GI50 (MDA-MB-435)?
Answer: 350 nM

Question: And the TGI (MDA-MB-435)?
Answer: 1160 nM

Question: And the GI50 (M14 melanoma)?
Answer: 495 nM

Question: And the TGI (M14 melanoma)?
Answer: 2110 nM

Question: And the GI50 (SK-MEL-5 melanoma)?
Answer: 1380 nM

Question: What about the TGI (SK-MEL-5 melanoma) of the same compound?
Answer: 2680 nM

Question: What about the GI50 (SN12C renal) of the same compound?
Answer: 1950 nM

Question: And the TGI (SN12C renal)?
Answer: 7150 nM

Question: And the GI50 (OVCAR-5 ovarian)?
Answer: 1650 nM

Question: What about the TGI (OVCAR-5 ovarian) of the same compound?
Answer: 3850 nM

Question: And the GI50 (SF-539 CNS)?
Answer: 1830 nM

Question: What about the TGI (SF-539 CNS) of the same compound?
Answer: 4200 nM

Question: And the GI50 (UACC-62 melanoma)?
Answer: 1650 nM

Question: And the TGI (UACC-62 melanoma)?
Answer: 5020 nM

Question: And the GI50 (A549 NSCLC)?
Answer: 1630 nM

Question: And the TGI (A549 NSCLC)?
Answer: 4320 nM

Question: What about the GI50 (COLO 205 colon) of the same compound?
Answer: 937 nM

Question: And the TGI (COLO 205 colon)?
Answer: 2650 nM

Question: What about the GI50 (HL-60(TB) leukemia) of the same compound?
Answer: 595 nM

Question: What about the TGI (HL-60(TB) leukemia) of the same compound?
Answer: 2400 nM

Question: And the GI50 (KM12 colon)?
Answer: 1470 nM

Question: What about the TGI (KM12 colon) of the same compound?
Answer: 3110 nM

Question: And the GI50 (SK-MEL-2 melanoma)?
Answer: 1380 nM

Question: And the TGI (SK-MEL-2 melanoma)?
Answer: 2970 nM

Question: And the GI50 (OVCAR-8 ovarian)?
Answer: 417 nM

Question: And the TGI (OVCAR-8 ovarian)?
Answer: 21000 nM

Question: What about the GI50 (SNB-75 CNS) of the same compound?
Answer: 1460 nM

Question: What about the TGI (SNB-75 CNS) of the same compound?
Answer: 3100 nM

Question: And the GI50 (SK-MEL-28 melanoma)?
Answer: 1620 nM

Question: And the TGI (SK-MEL-28 melanoma)?
Answer: 3270 nM

Question: What about the GI50 (NCI-H23 lung) of the same compound?
Answer: 520 nM

Question: What about the TGI (NCI-H23 lung) of the same compound?
Answer: 2080 nM

Question: And the GI50 (HT29 colon)?
Answer: 457 nM

Question: What about the TGI (HT29 colon) of the same compound?
Answer: 2270 nM

Question: What about the GI50 (HCT-116 colon) of the same compound?
Answer: 293 nM

Question: And the TGI (HCT-116 colon)?
Answer: 936 nM

Question: And the GI50 (BT-549 breast)?
Answer: 1680 nM

Question: And the TGI (BT-549 breast)?
Answer: 3890 nM

Question: And the GI50 (OVCAR-3 ovarian)?
Answer: 463 nM

Question: What about the TGI (OVCAR-3 ovarian) of the same compound?
Answer: 1620 nM

Question: And the GI50 (SK-OV-3 ovarian)?
Answer: 2000 nM

Question: What about the TGI (SK-OV-3 ovarian) of the same compound?
Answer: 4660 nM

Question: And the GI50 (T-47D breast)?
Answer: 1150 nM

Question: And the TGI (T-47D breast)?
Answer: 3560 nM

Question: And the GI50 (TK-10 renal)?
Answer: 645 nM

Question: And the TGI (TK-10 renal)?
Answer: 2020 nM

Question: What about the GI50 (UO-31 renal) of the same compound?
Answer: 527 nM

Question: And the TGI (UO-31 renal)?
Answer: 1980 nM

Question: What about the GI50 (OVCAR-4 ovarian) of the same compound?
Answer: 2000 nM

Question: And the TGI (OVCAR-4 ovarian)?
Answer: 6920 nM

Question: What about the GI50 (UACC-257 melanoma) of the same compound?
Answer: 731 nM

Question: What about the TGI (UACC-257 melanoma) of the same compound?
Answer: 2130 nM

Question: And the GI50 (SW-620 colon)?
Answer: 293 nM

Question: What about the TGI (SW-620 colon) of the same compound?
Answer: 1030 nM

Question: What about the GI50 (HS 578T breast) of the same compound?
Answer: 915 nM

Question: And the TGI (HS 578T breast)?
Answer: 10100 nM

Question: And the GI50 (HOP-92 NSCLC)?
Answer: 621 nM

Question: What about the TGI (HOP-92 NSCLC) of the same compound?
Answer: 1610 nM

Question: And the GI50 (SNB-19 CNS)?
Answer: 1630 nM

Question: And the TGI (SNB-19 CNS)?
Answer: 3580 nM

Question: What about the GI50 (MOLT-4 leukemia) of the same compound?
Answer: 314 nM

Question: And the TGI (MOLT-4 leukemia)?
Answer: 1560 nM

Question: And the GI50 (LOX IMVI melanoma)?
Answer: 198 nM

Question: What about the TGI (LOX IMVI melanoma) of the same compound?
Answer: 469 nM

Question: What about the GI50 (HOP-62 NSCLC) of the same compound?
Answer: 1640 nM

Question: And the TGI (HOP-62 NSCLC)?
Answer: 3680 nM

Question: What about the GI50 (HCT-15 colon) of the same compound?
Answer: 1220 nM

Question: What about the TGI (HCT-15 colon) of the same compound?
Answer: 6040 nM

Question: What about the GI50 (NCI-H460 lung) of the same compound?
Answer: 1250 nM

Question: And the TGI (NCI-H460 lung)?
Answer: 4130 nM

Question: And the GI50 (MCF7 breast)?
Answer: 610 nM

Question: What about the TGI (MCF7 breast) of the same compound?
Answer: 7020 nM

Question: What about the GI50 (ACHN renal) of the same compound?
Answer: 703 nM

Question: What about the TGI (ACHN renal) of the same compound?
Answer: 2220 nM

Question: And the GI50 (RPMI-8226 leukemia)?
Answer: 311 nM

Question: And the TGI (RPMI-8226 leukemia)?
Answer: 2300 nM

Question: What about the GI50 (NCI/ADR-RES ovarian) of the same compound?
Answer: 287 nM

Question: What about the TGI (NCI/ADR-RES ovarian) of the same compound?
Answer: 1160 nM

Question: And the GI50 (A498 renal)?
Answer: 1390 nM

Question: And the TGI (A498 renal)?
Answer: 2780 nM

Question: And the GI50 (IGROV1 ovarian)?
Answer: 916 nM

Question: What about the TGI (IGROV1 ovarian) of the same compound?
Answer: 2510 nM

Question: What about the GI50 (786-0 renal) of the same compound?
Answer: 1320 nM

Question: What about the TGI (786-0 renal) of the same compound?
Answer: 3080 nM

Question: And the GI50 (RXF 393 renal)?
Answer: 920 nM

Question: And the TGI (RXF 393 renal)?
Answer: 2230 nM

Question: And the GI50 (NCI-H522 lung)?
Answer: 189 nM

Question: What about the TGI (NCI-H522 lung) of the same compound?
Answer: 459 nM

Question: What about the GI50 (SF-268 CNS) of the same compound?
Answer: 753 nM

Question: And the TGI (SF-268 CNS)?
Answer: 2430 nM

Question: What about the GI50 (MDA-MB-231 breast) of the same compound?
Answer: 2430 nM

Question: And the TGI (MDA-MB-231 breast)?
Answer: 10400 nM

Question: And the GI50 (MALME-3M melanoma)?
Answer: 1490 nM

Question: What about the TGI (MALME-3M melanoma) of the same compound?
Answer: 4150 nM

Question: What about the GI50 (EKVX NSCLC) of the same compound?
Answer: 1400 nM

Question: What about the TGI (EKVX NSCLC) of the same compound?
Answer: 3390 nM
